Measurements as given in patent US10897903B2, “Method for controlling PPO resistant weeds” (BASF SE, priority 2016, dated 2021).

Legend:
[1] = test system: w.2 AMATU Amaranthus tuberculatus, tall waterhemp, PPO resistant biotype 1 that does not contain the ΔG210 mutation; type: in vivo; details: summary of Example 3 table
[2] = test system: w.3 AMATU Amaranthus tuberculatus, tall waterhemp, PPO resistant biotype 2 that does not contain the ΔG210 mutation; type: in vivo; details: summary of Example 3 table

C#CCN1C(=O)C(F)(F)Oc2cc(F)c(-n3c(=O)n(C)c(=S)n(C)c3=O)cc21 [I.a.35]
activity in words on PPO resistant weed w.2 [1]: very good activity
activity in words on PPO resistant weed w.3 [2]: very good activity
